A word on the IC90: it is the concentration needed for an effect of 90%.

The subject of the first experiment is Acinetobacter baumannii ATCC17961. Put plainly: 90% Growth Inhibitory Concentration (IC90) determination, antimicrobial susceptibility testing. In kind it is cell-based. As to conditions: Acinetobacter baumannii, ATCC17961, 16 h, Acinetobacter baumannii ATCC17961; Iso-Sensitest broth; growth by optical density at 600 nm over 16h; concentration inhibiting 90% of the growth; read-out: ATCC 17961 IC90. Summed up: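 Broth microdilution in Iso-Sensitest medium, compounds twofold diluted (e.g. 50–0.097 μM final), inoculum ~5×10^(5) CFU/ml, 35±2° C. OD600 was read every 20 min over 16 h. IC90 was derived from growth inhibition during logarithmic growth.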
In the case of `COc1cccc(-n2cc(-c3cnc(C(=O)Nc4ccc(C(=O)N5CCN(C(=O)C6CCNCC6)CC5)c(Cl)c4)n3C)c(C(F)(F)F)n2)n1` [Example Z31, N-[3-chloro-4-(4-isonipecotoylpiperazine-1-carbonyl)phenyl]-5-[1-(6-methoxy-2-pyridyl)-3-(trifluoromethyl)pyrazol-4-yl]-1-methyl-imidazole-2-carboxamide], the IC90 stood at 860 nM. Same read-out and setting: to `Cn1c(-c2cn(-c3ccc(N)cn3)nc2C(F)(F)F)cnc1C(=O)Nc1ccc(C(=O)N2CCNCC2)c(Cl)c1` [Example Z32, 5-[1-(5-amino-2-pyridyl)-3-(trifluoromethyl)pyrazol-4-yl]-N-[3-chloro-4-(piperazine-1-carbonyl)phenyl]-1-methyl-imidazole-2-carboxamide] belongs 390 nM. For the compound `Cn1c(-c2cn(-c3ccc(N)cn3)nc2C(F)(F)F)cnc1C(=O)Nc1ccc(C(=O)NCCNC(=O)[C@@H]2C[C@@H](O)CN2)c(Cl)c1` [Example Z33, 5-[1-(5-amino-2-pyridyl)-3-(trifluoromethyl)pyrazol-4-yl]-N-[3-chloro-4-[2-[[(2S,4R)-4-hydroxyprolyl]amino]ethylcarbamoyl]phenyl]-1-methyl-imidazole-2-carboxamide], the IC90 was determined as 1220 nM. On to `Cn1c(-c2cn(-c3ccc(N)cn3)nc2C(F)(F)F)cnc1C(=O)Nc1ccc(C(=O)NCC2CCN(C(=O)[C@@H]3C[C@@H](O)CN3)CC2)c(Cl)c1` [Example Z34, 5-[1-(5-amino-2-pyridyl)-3-(trifluoromethyl)pyrazol-4-yl]-N-[3-chloro-4-[[1-[(2S,4R)-4-hydroxyprolyl]-4-piperidyl]methylcarbamoyl]phenyl]-1-methyl-imidazole-2-carboxamide], for which the 90% effect concentration (IC90) is 410 nM.

With `CN(C(=O)c1ccc(NC(=O)c2ncc(-c3cn(-c4ccc(N)cn4)nc3C(F)(F)F)n2C)cc1Cl)C1CCN(C(=O)[C@@H]2C[C@@H](O)CN2)CC1` [Example Z35, 5-[1-(5-amino-2-pyridyl)-3-(trifluoromethyl)pyrazol-4-yl]-N-[3-chloro-4-[[1-[(2S,4R)-4-hydroxyprolyl]-4-piperidyl]-methyl-carbamoyl]phenyl]-1-methyl-imidazole-2-carboxamide], the IC90 was 270 nM. On to `Cn1c(-c2cn(-c3ccc(N)cn3)nc2C(F)(F)F)cnc1C(=O)Nc1ccc(C(=O)NCC2CC2NC(=O)[C@@H]2C[C@@H](O)CN2)c(Cl)c1` (stereo partly drawn) [Example Z36, 5-[1-(5-amino-2-pyridyl)-3-(trifluoromethyl)pyrazol-4-yl]-N-[3-chloro-4-[[2-[[(2S,4R)-4-hydroxyprolyl]amino]cyclopropyl]methylcarbamoyl]phenyl]-1-methyl-imidazole-2-carboxamide], for which the IC90 stood at 1180 nM. As for `Cn1c(-c2cn(-c3ccc(N)cn3)nc2C(F)(F)F)cnc1C(=O)Nc1ccc(C(=O)N2CC3CN(C(=O)[C@@H]4C[C@@H](O)CN4)CC3C2)c(Cl)c1` (stereo partly drawn) [Example Z37, 5-[1-(5-amino-2-pyridyl)-3-(trifluoromethyl)pyrazol-4-yl]-N-[3-chloro-4-[5-[(2S,4R)-4-hydroxyprolyl]-1,3,3a,4,6,6a-hexahydropyrrolo[3,4-c]pyrrole-2-carbonyl]phenyl]-1-methyl-imidazole-2-carboxamide], the 90% effect concentration (IC90) was 500 nM. With `Cn1c(-c2cn(-c3ccc(N)cn3)nc2C(F)(F)F)cnc1C(=O)Nc1ccc(C(=O)N[C@H]2C[C@H](NC(=O)[C@@H]3C[C@@H](O)CN3)C2)c(Cl)c1` [Example Z38, 5-[1-(5-amino-2-pyridyl)-3-(trifluoromethyl)pyrazol-4-yl]-N-[3-chloro-4-[trans-[3-[[(2S,4R)-4-hydroxyprolyl]amino]cyclobutyl]carbamoyl]phenyl]-1-methyl-imidazole-2-carboxamide], the IC90 is 660 nM. For `Cn1c(-c2cn(-c3ccc(N)cn3)nc2C(F)(F)F)cnc1C(=O)Nc1ccc(C(=O)N2CC[C@@H](CNC(=O)[C@@H]3C[C@@H](O)CN3)C2)c(Cl)c1` [Example Z39, 5-[1-(5-amino-2-pyridyl)-3-(trifluoromethyl)pyrazol-4-yl]-N-[3-chloro-4-[(3S)-3-[[[(2S,4R)-4-hydroxyprolyl]amino]methyl]pyrrolidine-1-carbonyl]phenyl]-1-methyl-imidazole-2-carboxamide], the IC90 amounted to 580 nM. Same read-out and setting: the result for `Cn1c(-c2cn(-c3ccc(N)cn3)nc2C(F)(F)F)cnc1C(=O)Nc1ccc(C(=O)NCCOCCNC(=O)[C@@H]2C[C@@H](O)CN2)c(Cl)c1` [Example Z40, 5-[1-(5-amino-2-pyridyl)-3-(trifluoromethyl)pyrazol-4-yl]-N-[3-chloro-4-[2-[2-[[(2S,4R)-4-hydroxyprolyl]amino]ethoxy]ethylcarbamoyl]phenyl]-1-methyl-imidazole-2-carboxamide] reads 780 nM; that for `Cn1c(-c2cn(-c3ccc(N)cn3)nc2C(F)(F)F)cnc1C(=O)Nc1ccc(C(=O)N[C@@H]2COC3(C2)CN(C(=O)[C@@H]2C[C@@H](O)CN2)C3)c(Cl)c1` [Example Z41, 5-[1-(5-amino-2-pyridyl)-3-(trifluoromethyl)pyrazol-4-yl]-N-[3-chloro-4-[[(7S)-2-[(2S,4R)-4-hydroxyprolyl]-5-oxa-2-azaspiro[3.4]octan-7-yl]carbamoyl]phenyl]-1-methyl-imidazole-2-carboxamide], 300 nM. Same read-out and setting: the result for `Cn1c(-c2cn(-c3ccc(N)cn3)nc2C(F)(F)F)cnc1C(=O)Nc1ccc(C(=O)N2CC[C@H](CNC(=O)[C@@H]3C[C@@H](O)CN3)C2)c(Cl)c1` [Example Z44, 5-[1-(5-amino-2-pyridyl)-3-(trifluoromethyl)pyrazol-4-yl]-N-[3-chloro-4-[(3R)-3-[[[(2S,4R)-4-hydroxyprolyl]amino]methyl]pyrrolidine-1-carbonyl]phenyl]-1-methyl-imidazole-2-carboxamide] reads 810 nM; that for `CN(C(=O)[C@@H]1C[C@@H](O)CN1)C1CCN(C(=O)c2ccc(NC(=O)c3ncc(-c4cn(-c5ccc(N)cn5)nc4C(F)(F)F)n3C)cc2Cl)CC1` [Example Z46, 5-[1-(5-amino-2-pyridyl)-3-(trifluoromethyl)pyrazol-4-yl]-N-[3-chloro-4-[4-[[(2S,4R)-4-hydroxyprolyl]-methyl-amino]piperidine-1-carbonyl]phenyl]-1-methyl-imidazole-2-carboxamide], 390 nM. On the same count and under the same terms, to `Cn1c(-c2cn(-c3ccc(N)cn3)nc2C(F)(F)F)cnc1C(=O)Nc1ccc(C(=O)N[C@H]2CC[C@H](NC(=O)[C@@H]3C[C@@H](O)CN3)C2)c(Cl)c1` [Example Z48, 5-[1-(5-amino-2-pyridyl)-3-(trifluoromethyl)pyrazol-4-yl]-N-[3-chloro-4-[[(1S,3S)-3-[[(2S,4R)-4-hydroxyprolyl]amino]cyclopentyl]carbamoyl]phenyl]-1-methyl-imidazole-2-carboxamide] belongs 510 nM; to `COc1cc(-n2cc(-c3cnc(C(=O)Nc4ccc(C(=O)N5CCN(C(=O)C6CCNCC6)CC5)c(Cl)c4)n3C)c(C(F)(F)F)n2)ncn1` [Example Z49, N-[3-chloro-4-(4-isonipecotoylpiperazine-1-carbonyl)phenyl]-5-[1-(6-methoxypyrimidin-4-yl)-3-(trifluoromethyl)pyrazol-4-yl]-1-methyl-imidazole-2-carboxamide], 840 nM. `Cn1c(-c2cn(-c3ccnc(Cl)c3)nc2C(F)(F)F)cnc1C(=O)Nc1ccc(C(=O)N2CCN(C(=O)C3CCNCC3)CC2)c(Cl)c1` [Example Z50, N-[3-chloro-4-(4-isonipecotoylpiperazine-1-carbonyl)phenyl]-5-[1-(2-chloro-4-pyridyl)-3-(trifluoromethyl)pyrazol-4-yl]-1-methyl-imidazole-2-carboxamide]: the IC90 was found to be 800 nM. On the same count and under the same terms, to `Cn1c(-c2cn(-c3ccc(N)cn3)nc2C(F)(F)F)cnc1C(=O)Nc1ccc(C(=O)N2CCNC3(CC3)C2)c(Cl)c1` [Example Z51, 5-[1-(5-amino-2-pyridyl)-3-(trifluoromethyl)pyrazol-4-yl]-N-[3-chloro-4-(4,7-diazaspiro[2.5]octane-7-carbonyl)phenyl]-1-methyl-imidazole-2-carboxamide] belongs 990 nM. `C[C@@H]1CN(C(=O)c2ccc(NC(=O)c3ncc(-c4cn(-c5ccc(N)cn5)nc4C(F)(F)F)n3C)cc2Cl)CCCN1` [Example Z52, 5-[1-(5-amino-2-pyridyl)-3-(trifluoromethyl)pyrazol-4-yl]-N-[3-chloro-4-[(3R)-3-methyl-1,4-diazepane-1-carbonyl]phenyl]-1-methyl-imidazole-2-carboxamide]: the IC90 came out at 1270 nM. Still for that read-out and setting: the result for `Cn1c(-c2cn(-c3ccc(N)cn3)nc2C(F)(F)F)cnc1C(=O)Nc1ccc(C(=O)N2CC3CCCC(C2)N3)c(Cl)c1` [Example Z53, 5-[1-(5-amino-2-pyridyl)-3-(trifluoromethyl)pyrazol-4-yl]-N-[3-chloro-4-(3,9-diazabicyclo[3.3.1]nonane-3-carbonyl)phenyl]-1-methyl-imidazole-2-carboxamide] reads 500 nM.

The experiment is the same for the next values; noted with them: Acinetobacter baumannii, ATCC17961, 16 h, read-out: ATCC 17961 IC90.
Consider `Cn1c(-c2cn(-c3ccc(N)cn3)nc2C(F)(F)F)cnc1C(=O)Nc1ccc(C(=O)N2CCC(CNC(=O)[C@@H]3C[C@@H](O)CN3)CC2)c(Cl)c1` [Example Z45, 5-[1-(5-amino-2-pyridyl)-3-(trifluoromethyl)pyrazol-4-yl]-N-[3-chloro-4-[4-[[[(2S,4R)-4-hydroxyprolyl]amino]methyl]piperidine-1-carbonyl]phenyl]-1-methyl-imidazole-2-carboxamide], for which the concentration for an effect of 90% (IC90) amounted to 650 nM. In the case of `Cn1c(-c2cn(-c3ccc(N)cn3)nc2C(F)(F)F)cnc1C(=O)Nc1ccc(C(=O)NC23CC(NC(=O)[C@@H]4C[C@@H](O)CN4)(C2)C3)c(Cl)c1` [Example Z47, 5-[1-(5-amino-2-pyridyl)-3-(trifluoromethyl)pyrazol-4-yl]-N-[3-chloro-4-[[3-[[(2S,4R)-4-hydroxyprolyl]amino]-1-bicyclo[1.1.1]pentanyl]carbamoyl]phenyl]-1-methyl-imidazole-2-carboxamide], the IC90 is 580 nM.

Values taken from patent publication US12679824B2 (Hoffmann-La Roche Inc., priority 2020, dated 2026).
